From publication PMC3735939, “The low levels of eicosapentaenoic acid in rat brain phospholipids are maintained via multiple redundant mechanisms” (Journal of Lipid Research, 2013)

Tests used:
Assay type in all cases: in vivo, rat
Conditions in all cases: MEP vs vehicle
[1] = Brain total phospholipid and phospholipid class FA concentrations (GC-FID)
From the text: Total lipids from one brain hemisphere and from plasma were extracted by the method of Folch, Lees, and Sloane Stanley ([39]). Isolation of various neutral lipid and phospholipid classes from the total lipid extract was previously described by Chen, Liu, and Bazinet ([6]).
Brain FA concentrations from total and phospholipid classes were quantified as described by Chen, Liu, and Bazinet ([6]).

[2] = Radioactivity in brain lipid fractions after 5 min intravenous 14C-tracer infusion (TLC, LSC)
Method: Twenty-four hours postsurgery, a second catheter (iv catheter 24 gauge/0.75 inch, Angiocath™; Becton Dickinson) was implanted into the tail vein where rats received either vehicle or 10 mg/kg of MEP. Ten minutes post injection of vehicle or MEP, the tail vein catheter was connected to a syringe containing radiolabeled ^14C-palmitate (n = 8), ^14C-DHA (n = 6), or ^14C-EPA (n = 7) attached to a computer-controlled variable speed pump (PHD 22/2000; Harvard Apparatus, Holliston, MA). […] Each rat received a dose of 76 μCi ^14C-palmitate, 76 μCi ^14C-DHA, or 78 μCi ^14C-EPA. […] The radiotracer infusions continued until rats were euthanized. The brain was excised and cut sagittally. Both hemispheres were stored at −80°C for radioactive and biochemical analyses. Plasma was isolated from whole blood via microcentrifugation at 6,200 rpm (2,000 g) for 5 min and stored at −80°C. Total lipids from one brain hemisphere and from plasma were extracted by the method of Folch, Lees, and Sloane Stanley ([39]). Isolation of various neutral lipid and phospholipid classes from the total lipid extract was previously described by Chen, Liu, and Bazinet ([6]). FA methyl esters and radioactive acyl-CoA analysis were previously described by Chen, Liu, and Bazinet ([6]).

[3] = Brain unesterified FA concentrations (GC-MS; EPA by LC-MS/MS) in vehicle- or MEP-treated rats
Method: At 15 weeks of age, 16 rats were randomized to receive vehicle or 10 mg/kg MEP via tail vein catheter as described above. […] Brain hemispheres were homogenized in ethanol to yield a concentration of 100 mg tissue/ml. The unesterified FAs from 100 mg of brain tissue were isolated. The unesterified FA bands were collected and extracted twice from silica by hexane:isopropanol (3:2 by volume) with 5.5% water. […] The mixtures were shaken for 15 min and dried down with nitrogen gas. FA-PFB esters (FAPEs) were reconstituted in 100 μl hexane for GC-MS analysis as described below. For measurements of unesterified EPA, brain samples were homogenized in ethanol on ice. An aliquot of 100 mg tissue was spiked with ARA-d8 (20 ng; Cayman Chemical, Ann Arbor, MI) and dried under nitrogen gas in reduced light conditions. Residues were dissolved in ethanol, acidified to pH 4 with 1 N HCl, and extracted three times with ethyl acetate. After washing to neutrality with water, the ethyl acetate fraction was dried under nitrogen and transferred to siliconized minivials for liquid chromatography-tandem mass spectrometry (LC-MS/MS) analysis as described below. Brain unesterified EPA was detected using an Agilent HPLC 1200 equipped with a Zorbax SB-Phenyl column. HPLC solvent contained 4 μl/l propionic acid. The initial conditions of elution were set at 400 μl/min gradient system consisting of (A) water and (B) acetonitrile. […] Mass spectrometry analyses were carried out on API5500 triple quadruple mass spectrometer (AB SCIEX, Concord, ON, Canada). The QTRAP analyses were conducted in electrospray ionization negative ion mode. The turbospray temperature was set to 500°C and the ion spray voltage to 4,500 V. The collision energy, declustering potential, and collision cell exit potential were optimized and were set to 15, 50, and 11, respectively. Concentration was quantified by comparing the deuterium-to-protium ratio of brain unesterified EPA with standard lines generated from authentic standards. Authentic standards in appropriate dilutions (0.002-2 ng) were prepared and analyzed simultaneously with brain samples. The lower limit of quantification (LLQ) was 0.002 ng (6.3 fmol of […] identified with an Agilent 7890A gas chromatograph (Agilent Technologies) equipped with a SP-2380 (Supelco) fused silica column (Agilent Technologies; 30 m × 0.25 mm I.D. × 0.2 μm film thickness) and an Agilent 5975C quadruple mass spectrometry detector (Agilent Technologies). The sample was injected in split mode (10:1). The injection port temperature was set to 240°C and the ionization mode was set to negative chemical ionization using methane. FAPEs were eluted using a temperature program initially set at 150°C for 1 min, increase at 12°C/min to 270°C, and then at 40°C/min to 275°C for 3 min. […]

SMILES: CCCCCCCCCCCCCCC1(C(=O)OC)CO1 (centres unmarked) [MEP, methyl-2-tetradecylglycidate, reference compound]
- reduction in ARA from PtdSer [1]: 8%
- reduction in linoleate from EtnGpl [1]: 9%
- increase in radioactivity of PtdSer ([2]; 14C-EPA-infused rats): 49%
- increase in radioactivity of PtdIns ([2]; 14C-palmitate-infused rats): 65%
- fold increase in brain unesterified EPA [3]: 1.3 fold
- fold increase in brain unesterified linoleate (18:2n-6) [3]: 1.4 fold
- fold increase in brain unesterified palmitate [3]: 2.5 fold
- fold increase in brain unesterified α-linolenate (18:3n-3) [3]: 1.5 fold
